Measurements: US12422427B2, “Compounds for treatment of diseases and methods of screening therefor” (Max-Planck-Gesellschaft zur Förderung der Wissenschaften …, priority 2018, dated 2025)
Entries after “also recorded” stand apart in the source; their conditions may differ.

What was measured:
[1] = test system: liquid-like non-membrane bound compartments; details: cited from earlier work
[2] = test system: HeLa cells expressing FUS GFP; experiment: HeLa cell compound dose responses (FUS GFP, arsenate stress); assay type: cell-based; details: 1 h 1 mM arsenate stress
Protocol: Small dilution steps rather than concentration replicates were selected as it provides greater statistical power from a set number of samples. Final DMSO concentration was 0.08% in all samples, and each plate included at least 12 control wells with 0.08% DMSO. Cytoplasmic FUS droplet number and nuclear/cytoplasm partition of FUS were analysed using custom macros in ImageJ. Nuclei were identified by intensity thresholding of the blue fluorescence image following a 5 px Gaussian blur. Cytoplasmic FUS droplets by intensity thresholding of the green image following a 10 px weight 0.9 unsharp filter masked by the thresholded nuclei, and nuclear FUS droplets by intensity thresholding of the green image following a 5 px weight 0.9 unsharp filter and 10 px rolling ball background subtraction masked to only include thresholded nuclei. The ratio of cytoplasmic FUS drops to nuclei was taken as cytoplasmic FUS droplets per cell per field of view, and p, the ratio of partition of FUS to the nucleus and the cytoplasm, was derived from a=Vn/vt, the ratio of nuclear to total green signal per field of view, where p=a/(1−a). […] Six fields of view were captured and analysed per condition.

[3] = test system: EWSR1, TIAL1, PABPC1, G3BP1; experiment: Panel of HeLa lines expressing GFP-labelled stress granule proteins, arsenate stress; assay type: cell-based; details: 1 mM arsenate, 10 μM compound
Protocol: It was anticipated that a useful therapeutic would prevent all PLD-containing stress granule proteins from localising to stress granules. The inventors used 1 mM arsenate to stress a panel of HeLa cell lines expressing GFP fusions of stress granule proteins (EWSR1, TIAL1, PABPC1, G3BP1) with either no treatment or 10 μM lipoic acid or lipoamide.
Compound effects were assessed under a variety of conditions in HeLa or iPS cells expressing wild-type or P525L FUS GFP by live cell imaging. Different combinations of 1 h pre-treatment compound or pre-stress with arsenate followed by 1 h treatment with compound and/or stress with arsenate. Unless otherwise indicated, cells were pre-treated for 1 h using 10 μM compound from 10 mM stock in DMSO (or an equal volume of DMSO control) then stressed for 1 h with 1 mM potassium arsenate still in the presence of compound. GFP fluorescence was imaged by widefield epifluorescence using an inverted Olympus IX71 microscope with an Olympus 100× NA 1.4 Plan Apo oil immersion objective and a CoolSNAP HQ CCD camera (Photometrics), using a DeltaVision climate control unit (37° C., 5% CO2) (Applied Precision). The kinetics of pre-stress followed by treatment was analysed from images captured at 2 min intervals for 100 min, for single time points images were captured after 1 h unless otherwise indicated.

[4] = test system: HeLa cells expressing FUS GFP; experiment: Stress granule formation in HeLa FUS GFP cells under different stresses; assay type: cell-based; details: 10 μM; mitochondrial (rotenone), hyperosmotic (sorbitol) or arsenate stress
Protocol: The stressor, arsenate, will react with the thiol groups of lipoamide. Therefore, to exclude the possibility that lipoamide is acting only by removing the stressor, so it was further tested whether lipoic acid can prevent stress granule formation triggered by other stresses than arsenate (an oxidative) stress: Mitochondrial electron transport chain inhibition (rotenone), heat stress (42° C.), hyperosmotic stress (sorbitol, a non-metabolisable sugar), glycolysis inhibition ([…] in the absence of glucose) or serum starvation.
Various cellular stresses were achieved by replacing 1 h 1 mM potassium arsenate treatment with other conditions: 100 μM rotenone (R8875, Sigma Aldrich) from a 1 M stock in DMSO for 2 h (mitochondrial stress). […] Sorbitol (S1876, Sigma Aldrich) from a 4 M stock in H2O for 1 h (osmotic stress). 42° C. in normal growth medium for 30 m (heat stress). […] Appropriate solvent controls were used.

PAB-1 = experiment: Protein aggregation in C. elegans: PAB-1; assay type: in vivo, Caenorhabditis elegans; details: liquid culture from L4, scored day 2 of adulthood
Protocol: The effect of lipoic acid on stress granule protein aggregation in vivo was analysed using a C. elegans model for stress granule formation and aggregation. As previously described, fluorescent-tagged PAB-1 forms abundant stress granules and large solid aggregates during aging or upon chronic stress. RHO-1 and KIN-19 also aggregate during aging, but are not RNA binding or stress granule proteins. Three lines were used: Fluorescently tagged PAB-1 (DCD214: N2; uqIs24[pmyo-2::tagrfp::pab 1gene]), KIN-19 (CF3649: N2; muIs 209[pmyo-3::kin-19::tagrfp+ptph-1::GFP] and RHO-1 (DCD13: N2; uqIs9 [pmyo-2::rho-1::tagr fp+ptph-1::gfp]). Each were analysed as below, except DCD13 were maintained at 20° C.
The animals were exposed to lipoic acid in liquid culture in a 96 well plate starting from larval stage L4 in a total volume of 50 μl S-Complete per well (100 mM NaCl, 50 mM Potassium phosphate pH 6, 10 mM potassium citrate, 3 mM MgSO4, 3 mM CaCl2), 5 μg/mL cholesterol, 50 μM ethylenediaminetetraacetic acid (EDTA), 25 μM FeSO4, 10 μM MnCl2, 10 μM ZnSO4, 1 μM CuSO4) supplemented with heat-killed OP50 and 50 μg/ml carbenicillin. […] Toxicity was evaluated from the number of dead or aberrantly small-sized animals.
48 h after switching the L4s from 20° C. to 25° C. […] After immobilization with 2 mM levamisole aggregation was scored using a fluorescent stereo microscope (Leica M165 FC, Plan Apo 2.0× objective). […]

Molecule: OCCCCCCO [1,6-hexanediol]
- concentrations required for in vitro or cellular activity [1]: 1-10%
- toxicity at active concentrations [1]: rapidly toxic

Molecule: O=C(O)CCCC[C@@H]1CCSS1 [R-(+)-lipoic acid]
- EC50 reducing stress granule number, compared among compounds [2]: comparable EC50
- localisation of EWSR1, TIAL1, PABPC1, G3BP1 GFP to stress granules [3]: localised to stress granules in the absence of treatment, and not in the presence
- stress granule formation [4]: reduced stress granule formation
- proportion of animals with aggregation of PAB-1 (PAB-1): dose-dependent decrease; also recorded: strong dose-dependent reduction

Molecule: S-(−)-lipoic acid
- EC50 reducing stress granule number, compared among compounds [2]: comparable EC50; also recorded: very similar activity
- localisation of EWSR1, TIAL1, PABPC1, G3BP1 GFP to stress granules [3]: localised to stress granules in the absence of treatment, and not in the presence
- stress granule formation [4]: reduced stress granule formation
- proportion of animals with aggregation of PAB-1 (PAB-1): dose-dependent decrease; also recorded: strong dose-dependent reduction
